Consider ten compounds from PMC10395789, “Impacts of some metal ions on glutathione s-transferase in the liver of Chalcalburnus tarichi: an endemic species of Lake Van” (Turkish Journal of Chemistry, 2022).

Values joined by “and” are separate entries in the source; they are usually repeats but may differ in a detail not shown here. Identical values can stand only once.

The test system of experiment [1] is C. tarichi Pallas liver GST. Put plainly: In vitro inhibition effect of metals on GST enzyme activity. It counts as biochemical, Chalcalburnus tarichi Pallas. Particulars: for Inhibition type / Ki: GSH substrate, Lineweaver–Burk plots; for IC50: purified liver GST, from Activity (%)–[metal ion] plots; for Ki: three metal concentrations, mean ± standard error of the mean. The procedure: C. tarichi Pallas fish were obtained from Van Lake basin. The liver samples of C. tarichi Pallas were immediately removed and preserved for experimental studies according to the cold chain principles. The livers were sliced into small pieces and successfully lysed by a homogenizer in 50 mM Tris/HCl buffer (pH 7.2) containing 1 mM DTT, 1 mM PMSF and 1 mM EDTA. Homogenate was centrifuged twice at 4 °C and 20,000 × g for 60 min. The supernatant was used in subsequent analyses. For GST purification, we followed the procedure described in our previous study.
(§1) GST activity was measured with the method in our previous study using CDNB as the model substrate.
IC50 was defined as the concentration of the compound causing 50% inhibition, and it was calculated based on Activity (%)–[metal ion] plots for each metal. The Ki values and inhibition types were found using Lineweaver–Burk plots. For the Ki study, we selected 3 inhibitor concentrations and made activity measurements relative to the control values, and then we calculated 1 / S and 1 / V values and plotted Ki plots. Analysis of the data and drawing of graphs were realized using GraphPad Prism ver. 8 for Mac (GraphPad Software, La Jolla California USA). […] Differences between data sets were considered statistically significant when the p-value was less than 0.05.

Experiment [2] deals with GST from Lake Van fish gills. Also on record: method as in PMID 25856719. Particulars: Lake Van fish gill GST; cited from earlier work.
The subject of a further experiment is GST from muscle tissue. Also on record: method as in Aksoy et al. 15. Particulars: ref Aksoy et al. 15; cited from earlier work.
The next experiment concerns GST from turkey livers. Also noted: method as in PMID 22989768. Conditions: turkey liver GST; cited from earlier work.
Experiment [3] concerns GST in the liver of Bonito. Also on record: method as in Güller et al. 43. Particulars: ref Güller et al. 43; cited from earlier work.
Experiment [4] concerns C. tarichi Pallas liver GST. Put plainly: Kinetic analysis (Km, Vmax, Lineweaver–Burk plot) of liver GST with GSH and CDNB as cosubstrates. It counts as biochemical, Chalcalburnus tarichi Pallas. Conditions: substrate of liver GST. The procedure:
as §1
Bradford procedure was used for protein quantity. The optimal pH and ionic strength were determined based on the activity of the pure enzyme described in a previous study. The effects of temperature on GST activity were made spectrophotometrically at temperatures ranging from 0 to 80 °C as described in a previous study. Stable pH ranges were 5.5–8.0 and 7.0–9.0. The enzyme solution was mixed with the buffers at the corresponding pH values. The activities were assayed at every 24 h for 4 days. Different concentrations of GSH and CDNB were used as substrates to determine the Vmax and Km values of the GST enzyme. Vmax and Km values were determined based on the Lineweaver–Burk plot.

As a reminder, the IC50 is the point on the concentration scale where inhibition reaches its midpoint. With `[Ag+]` [Ag^+], in experiment [1], the Inhibition type result was “Noncompetitive” and inhibition was half-maximal at 0.21 µM (IC50). Further, the “Inhibitory effect among the studied metal ions” value in experiment [1] (compared with Cu2+, Cd2+, Co2+) is reported as “best inhibitory effect”. In addition, in experiment [2], the “Inhibitory effect among the studied metal ions” value is listed as “best inhibitory effect”. For the same compound, in the experiment with GST from muscle tissue, the “Inhibitory effect among all studied metal ions” value is on record as “best inhibitor”. Further, the “Inhibitory effect on enzyme activity” value with GST from turkey livers is reported as “potent inhibitory effect”. For the same compound, the “Effect on GST enzyme activity” value in experiment [3] is “showed inhibitory effects”.
A word on the Km: it is the substrate concentration at which the rate is half of its maximum. On to `O=[N+]([O-])c1ccc(Cl)c([N+](=O)[O-])c1` [CDNB], for which, in experiment [4], the Michaelis constant (Km) worked out at 890 µM; the Vmax is 1.245 EU/mL and 1.25 EU/mL.
Broadly, the Ki is a measure of affinity in units of concentration, obtained from inhibition or displacement. For `[Cd+2]` [Cd^2+], in experiment [1], the Inhibition type entry was “Competitive”, the Ki is 117 ± 31 µM and the IC50 amounted to 235 µM. In addition, in experiment [3], the “Effect on GST enzyme activity” value was “showed inhibitory effects”.
As for `[Co+2]` [Co^2+], in experiment [1], the Inhibition type result is reported as “Competitive” and half-maximal inhibition (IC50) required 446 µM.
For the compound `[Cr+2]` [Cr^2+], the “Effect on GST enzyme activity” value in experiment [3] was “did not show any impact”.
As for `[Cu+2]` [Cu^2+], in experiment [1], the Inhibition type result is recorded as “Competitive”; the affinity, expressed as Ki, was 49 ± 9 µM; half-maximal inhibition (IC50) was put at 163 µM. Besides, the “Effect on GST enzyme activity” value in experiment [3] was “showed inhibitory effects”.
In the case of `[Fe+3]` [Fe^3+], the “Effect on GST enzyme activity” value in experiment [3] is given as “did not show any impact”.
In the case of `N[C@@H](CCC(=O)N[C@@H](CS)C(=O)NCC(=O)O)C(=O)O` [GSH], in experiment [4], the Km amounted to 60 µM; the Vmax was 0.562 EU/mL and 0.56 EU/mL.
On to `[Pb+2]` [Pb^2+], for which the “Effect on GST enzyme activity” value in experiment [3] is on record as “did not show any impact”.
As to `[Zn+2]` [Zn^2+], in experiment [3], the “Effect on GST enzyme activity” value is listed as “showed inhibitory effects”.
